Experimental data taken from patent US20230263817A1, “HIGH DOSE NICOTINAMIDE ADENINE DINUCLEOTIDE (NAD) PRECURSOR REGIMENS FOR REDUCTION OF INFLAMMATION IN HUMAN PATIENTS WITH PREEXISTING INFLAMMATION” (University of Washington, priority 2021, published 2023).

Key:
[1] = tested on: NLRP3 and cytokines mRNA of PBMC of Stage D HF subjects; assay: PBMC NLRP3 and cytokine mRNA of Stage D HF patients pre- and post-oral NR; type: in vivo, human; conditions: oral NR 5-9 days, post vs pre
Protocol: For experiments associated with the oral NR administration (FIGS. 12C-12F), 5 hospitalized Stage D HF patients undergoing advanced heart failure therapy evaluations were put on escalating doses of NR (250 mg twice a day for Day 1, 500 mg twice a day for Day 2, and 1000 mg twice a day from Day 3 on) for 5-9 days. Fasting blood samples were obtained for PBMC isolation at baseline and post-NR administration. Subject 5 was withdrawn due to a change in clinical course deemed to be independent from NR administration.
RNA Isolation and Quantitative PCR analysis. Total RNA was isolated from frozen PBMC pellets using Trizol (Invitrogen) per the manufacturer's instructions, and cDNA was synthesized using iScript™ Reverse Transcription Supermix (Bio-rad) per the manufacturer's instructions. Real-time PCR was performed in the Corbett rotor gene 6000 real-time PCR machine using iQ™ SYBR® Green Supermix (Bio-rad) and expression levels of the indicated genes were calculated using the ΔΔCt method.

[2] = Randomized placebo-controlled 12-week trial of NR in clinically-stable HFrEF: safety and tolerability; type: in vivo, human
Text: The remaining 30 participants met all the prespecified inclusion criteria of: 1) Systolic HF (LVEF<40%, as determined by transthoracic echocardiogram) of non-ischemic or ischemic etiologies, 2) clinically stable (no cardiac procedures or hospitalizations for cardiac causes, including HF, ischemia or arrhythmia) within the prior 3 months, 3) ability to perform Study procedures (including study visits, blood draws and 6MWT), 4) willingness/ability to provide informed consent. None had any of the following exclusion criteria: 1) Heart failure with preserved ejection fraction (LVEF>40%), 2) HF etiologies other than non-ischemic or ischemic, 3) cardiac procedures, including, cardiac surgery, PCI, or cardiac device implantation, within the previous 3 months, 4) hospitalizations for cardiovascular causes, including HF, chest pain, stroke/TIA or arrhythmias within the prior 3 months, 5) inability to perform Study visits or procedures (e.g., physical inability to perform 6MWT), 6) unwillingness or inability to provide informed consent, 7) Alanine transaminase (ALT)>×3 upper limit of normal, hepatic insufficiency or active liver disease, 8) recent history of acute gout, 9) chronic renal insufficiency with serum creatinine ≥2.5 mg/dl, 10) pregnant or likely to become pregnant, 11) significant co-morbidity likely to cause death within 6 months, 12) significant history of active substance abuse within the previous 5 years, 13) current participation in a clinical trial of a study drug or intervention, and 14) prior intolerance to NR precursors, including niacin or nicotinamide. Follow-up was completed on all 30 participants. Study medication was discontinued in one participant due to gastrointestinal intolerance, but they completed all follow-up visits and procedures. The final participant refused to complete any study visits or procedures after the Week 0 (Randomization Visit), but their vital status was confirmed at the end of the Study. No participants were excluded from analysis, which followed the principal of intention-to-treat. The standardized method for characterizing adverse events employed in the UW Clinical Trials Unit is the Common Terminology Criteria for Adverse Events v3.0 (CTCAE). There were 18 protocol deviations.
Study Design: The overall Study Design is depicted graphically in FIG. 15. Participant clinic visits, medication dispensing and data collection were performed on the Translational Research Unit (TRU) at the University of Washington (UW). […] History included assessment with the Minnesota Living with Heart Failure Questionnaire (MLHFQ), under license from the University of Minnesota (Minneapolis, Minn.).
Participants were randomized to NR or placebo at a 2:1 allocation ratio by the University of Washington Investigational Drug Service, which assigned Study IDs and dispensed study medications.
At Week 0 (Randomization), participants underwent history, repeat 6MWD assessment and baseline transthoracic echocardiogram (FIG. 15). NR or matching placebo were started at the initial dose of 250 mg orally twice daily, then up-titrated by 250 mg twice daily each week to a final dose of 1000 mg twice daily by Week 3. Participants were continued on the 1000 mg twice daily dose until the final clinic visit on Week 12. Blood draws for study labs, including levels of NR and NAD were obtained at Weeks 0, 2, 4 and 12. Medications were dispensed at Weeks 0, 2, 4 and 8, with pill counts performed at Weeks 2, 4, 8 and 12. A telephone visit was performed at Week 6. The final echocardiogram and PBMC mitochondrial respiration assays were performed at Week 12. Study labs were performed by the UW Research Testing Service, except for NR and NAD+ assays, which were performed by the Pharmacokinetics Laboratory, Department of Pharmaceutics, UW School of Pharmacy. Procedures for blood collection and processing, as well as NR and NAD+ assay procedures, have been described previously (Airhart S E, et al., PLoS One. 2017, 12:e0186459).

NC(=O)c1ccc[n+]([C@@H]2O[C@H](CO)[C@@H](O)[C@H]2O)c1 [NR, nicotinamide riboside]
reduction of proinflammatory cytokine gene expressions [1]: up to 30 fold
total AEs reported on-trial ([2]; 20-participant NR group): 63
treatment-emergent laboratory abnormalities, NR vs placebo ([2]; HFrEF, 12 weeks): no significant differences
treatment-emergent adverse events (AEs), NR vs placebo ([2]; HFrEF, up to 1000 mg twice daily, 12 weeks): no between-group differences
safety and tolerability ([2]; dose up to 1000 mg twice daily, total treatment duration of 12 weeks): well-tolerated
out-of-range lab values ([2]; patients randomized to NR): creatinine greater than 1.5× but less than 3× baseline on 2 occasions in 1 patient
percentages of dispensed capsules taken (range) ([2]; returned pill counts, NR group): 97 (91-100) %
